Test results as given in PubChem BioAssay AID330 (DTP/NCI, 2004).
Values joined by “and” are separate entries in the source; they are usually repeats but may differ in a detail not shown here. Equal values may be shown once. Inconclusive results and toxic doses are left out.

System: P388 leukemia ip, CD2F1 mice, survival T/C
Experiment: NCI In Vivo Anticancer Drug Screen. Data for tumor model P388 Leukemia (intraperitoneal) in CD2F1 (CDF1) mice
Settings: endpoint: median survival time, higher = longer survival
Outline: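 Mice carrying the transplanted tumor received test compound or vehicle. Survival was recorded in each group, and the value is the treated-group measurement divided by that of the vehicle-treated control group.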

[1] = dose: 50.0 mg/kg/injection, schedule: Q01DX009 (ip), vehicle: saline with Tween-80
[2] = dose: 100.0 mg/kg/injection, schedule: Q01DX009 (ip), vehicle: saline with Tween-80
[3] = dose: 200.0 mg/kg/injection, schedule: Q01DX009 (ip), vehicle: saline with Tween-80
[4] = dose: 50.0 mg/kg/injection, schedule: Q01DX009 (ip), vehicle: Klucel (hydroxypropylcellulose) (HPC)
[5] = dose: 100.0 mg/kg/injection, schedule: Q01DX009 (ip), vehicle: Klucel (hydroxypropylcellulose) (HPC)
[6] = dose: 200.0 mg/kg/injection, schedule: Q01DX009 (ip), vehicle: Klucel (hydroxypropylcellulose) (HPC)
[7] = dose: 12.5 mg/kg/injection, schedule: Q01DX009 (ip), vehicle: other
[8] = dose: 25.0 mg/kg/injection, schedule: Q01DX009 (ip), vehicle: other
[9] = dose: 50.0 mg/kg/injection, schedule: Q01DX005 (ip), vehicle: Klucel (hydroxypropylcellulose) (HPC)
[10] = dose: 100.0 mg/kg/injection, schedule: Q01DX005 (ip), vehicle: Klucel (hydroxypropylcellulose) (HPC)
[11] = dose: 200.0 mg/kg/injection, schedule: Q01DX005 (ip), vehicle: Klucel (hydroxypropylcellulose) (HPC)
[12] = dose: 2.5 mg/kg/injection, schedule: Q01DX009 (ip), vehicle: saline with Tween-80
[13] = dose: 5.0 mg/kg/injection, schedule: Q01DX009 (ip), vehicle: saline with Tween-80
[14] = dose: 60.0 mg/kg/injection, schedule: Q01DX005 (ip), vehicle: saline with Tween-80
[15] = dose: 120.0 mg/kg/injection, schedule: Q01DX005 (ip), vehicle: saline with Tween-80
[16] = dose: 240.0 mg/kg/injection, schedule: Q01DX005 (ip), vehicle: saline with Tween-80
[17] = dose: 75.0 mg/kg/injection, schedule: Q04DX003 (ip), vehicle: saline with Tween-80
[18] = dose: 50.0 mg/kg/injection, schedule: Q01DX009 (ip), vehicle: saline
[19] = dose: 200.0 mg/kg/injection, schedule: Q01DX009 (ip), vehicle: saline
[20] = dose: 50.0 mg/kg/injection, schedule: Q01DX005 (ip), vehicle: saline with Tween-80
[21] = dose: 100.0 mg/kg/injection, schedule: Q01DX005 (ip), vehicle: saline with Tween-80
[22] = dose: 200.0 mg/kg/injection, schedule: Q01DX005 (ip), vehicle: saline with Tween-80
[23] = dose: 50.0 mg/kg/injection, schedule: Q01DX005 (ip), vehicle: saline
[24] = dose: 100.0 mg/kg/injection, schedule: Q01DX005 (ip), vehicle: saline
[25] = dose: 150.0 mg/kg/injection, schedule: Q04DX003 (ip), vehicle: saline with Tween-80

## C#CC(CC)(CC)N=Cc1cc(Cl)cc(Cl)c1O
[1]
  T/C: 98 % of control
[2]
  T/C: 94 % of control
[3]
  T/C: 96 % of control

## OCCCCP12(OC(C(F)(F)F)(C(F)(F)F)c3ccccc31)OC(C(F)(F)F)(C(F)(F)F)c1ccccc12
[4]
  T/C: 102 % of control
[5]
  T/C: 100 % of control
[6]
  T/C: 102 % of control

## O=S(=O)(N/N=C/c1ccncc1)c1ccccc1
[7]
  T/C: 110 % of control and 121 % of control
[8]
  T/C: 116 % of control
dose: 100.0 mg/kg/injection, schedule: Q01DX009 (ip), vehicle: other
  T/C: 157 % of control

## CCCNC(=S)Nc1ccc(F)cc1F
dose: 3.12 mg/kg/injection, schedule: Q01DX009 (ip), vehicle: other
  T/C: 108 % of control
dose: 6.25 mg/kg/injection, schedule: Q01DX009 (ip), vehicle: other
  T/C: 107 % of control and 110 % of control and 89 % of control
[7]
  T/C: 99 % of control and 100 % of control and 101 % of control
[8]
  T/C: 108 % of control and 121 % of control and 96 % of control

## NC(=O)c1nsc(-c2ccc([N+](=O)[O-])cc2)c1N
[9]
  T/C: 101 % of control
[10]
  T/C: 96 % of control
[11]
  T/C: 92 % of control

## COc1cc(O)c(Cc2ccccc2O)c(O)c1C(=O)CCc1ccccc1
dose: 1.25 mg/kg/injection, schedule: Q01DX009 (ip), vehicle: saline with Tween-80
  T/C: 100 % of control
dose: 1.25 mg/kg/injection, schedule: Q01DX009 (ip), vehicle: saline
  T/C: 104 % of control
[12]
  T/C: 105 % of control
dose: 2.5 mg/kg/injection, schedule: Q01DX009 (ip), vehicle: saline
  T/C: 104 % of control
[13]
  T/C: 111 % of control
dose: 5.0 mg/kg/injection, schedule: Q01DX009 (ip), vehicle: saline
  T/C: 104 % of control
dose: 10.0 mg/kg/injection, schedule: Q01DX009 (ip), vehicle: saline
  T/C: 104 % of control
dose: 20.0 mg/kg/injection, schedule: Q01DX009 (ip), vehicle: saline
  T/C: 101 % of control

## Nc1c2c(c(N)c3c1C(=O)c1ccccc1C3=O)OCO2
[14]
  T/C: 100 % of control
[15]
  T/C: 98 % of control
[16]
  T/C: 98 % of control

## C#CC(C(C)C)N(CCO)CCCC (configuration not stated)
[14]
  T/C: 105 % of control
[15]
  T/C: 104 % of control
[16]
  T/C: 102 % of control

## c1ccc2c(c1)O[As](O[As]1Oc3ccccc3O1)O2
[12]
  T/C: 106 % of control
[13]
  T/C: 122 % of control
dose: 20.0 mg/kg/injection, schedule: Q01DX009 (ip), vehicle: saline with Tween-80
  T/C: 161 % of control

## Cc1ccc(C)c(C2(c3cc(C)ccc3C)CCCCCC2=O)c1
[10]
  T/C: 88 % of control

## O=C(CCN1CC1)OCCOC(=O)CCN1CC1
dose: 25.0 mg/kg/injection, schedule: Q04DX003 (ip), vehicle: saline
  T/C: 159 % of control
dose: 50.0 mg/kg/injection, schedule: Q04DX003 (ip), vehicle: saline with Tween-80
  T/C: 150 % of control
dose: 50.0 mg/kg/injection, schedule: Q04DX003 (ip), vehicle: saline
  T/C: 181 % of control
[17]
  T/C: 166 % of control

## COc1cc(NS(=O)(=O)c2ccc(NC(C)c3ccc4cccnc4c3O)cc2)nc(OC)n1 (configuration not stated)
[14]
  T/C: 98 % of control
[15]
  T/C: 99 % of control
[16]
  T/C: 96 % of control

## Clc1nnc(-c2ccccc2)c(-c2ccccc2)n1
dose: 25.0 mg/kg/injection, schedule: Q01DX009 (ip), vehicle: saline with Tween-80
  T/C: 100 % of control
[1]
  T/C: 100 % of control
[2]
  T/C: 100 % of control

## COC1/C=C\OC2(C)Oc3c(C)c(O)c4c(c3C2=O)C(=O)C(Br)=C(NC(=O)/C(C)=C\C=C/C(C)C(O)C(C)C(O)C(C)C(OC(C)=O)C1C)C4=O (configuration not stated)
dose: 25.0 mg/kg/injection, schedule: Q01DX009 (ip), vehicle: Klucel (hydroxypropylcellulose) (HPC)
  T/C: 102 % of control
[4]
  T/C: 97 % of control
[5]
  T/C: 102 % of control
[6]
  T/C: 100 % of control

## CCCCCCN(C)C12CN3CN(CN(C3)C1)C2
[18]
  T/C: 102 % of control
dose: 100.0 mg/kg/injection, schedule: Q01DX009 (ip), vehicle: saline
  T/C: 102 % of control
[19]
  T/C: 102 % of control

## CCc1nc(N)nc(N)c1-c1ccc(N2CCN(C)CC2)cc1
[20]
  T/C: 103 % of control
[21]
  T/C: 100 % of control
[22]
  T/C: 99 % of control

## CN1CCC(c2ccccc2)C(OC(=O)c2ccccc2)C1 (configuration not stated)
dose: 25.0 mg/kg/injection, schedule: Q01DX005 (ip), vehicle: saline
  T/C: 110 % of control
[23]
  T/C: 111 % of control
[24]
  T/C: 100 % of control

## O=C(O)c1ccccc1C(=O)c1ccccn1
[4]
  T/C: 99 % of control
[5]
  T/C: 97 % of control
[6]
  T/C: 97 % of control

## CCOC(=O)C1=C(N)OC(c2ccccc2)=C(C#N)C1c1ccc(C)cc1 (configuration not stated)
[9]
  T/C: 110 % of control
[10]
  T/C: 107 % of control
[11]
  T/C: 100 % of control

## CCN(CC)CCCC(C)NC(=S)N/N=C(\C)c1ccccn1 (configuration not stated)
[18]
  T/C: 110 % of control and 113 % of control
[19]
  T/C: 157 % of control

## O=[N+]([O-])c1cccc(-c2ccccc2)c1Br
dose: 37.5 mg/kg/injection, schedule: Q04DX003 (ip), vehicle: saline with Tween-80
  T/C: 100 % of control
[17]
  T/C: 100 % of control
[25]
  T/C: 100 % of control

## O=C1CC23CCCN2CCc2cc4c(cc2C3=C1O)OCO4 (configuration not stated)
dose: 1.56 mg/kg/injection, schedule: Q01DX009 (ip), vehicle: water
  T/C: 98 % of control
dose: 3.13 mg/kg/injection, schedule: Q01DX009 (ip), vehicle: water
  T/C: 104 % of control
dose: 6.25 mg/kg/injection, schedule: Q01DX009 (ip), vehicle: water
  T/C: 98 % of control
dose: 12.5 mg/kg/injection, schedule: Q01DX009 (ip), vehicle: water
  T/C: 92 % of control
dose: 25.0 mg/kg/injection, schedule: Q01DX009 (ip), vehicle: water
  T/C: 88 % of control

## Cc1ccc2c(O)c3c(cc2c1O)C(=O)c1ccccc1C3=O
[20]
  T/C: 100 % of control
[21]
  T/C: 107 % of control
[22]
  T/C: 109 % of control

## CCNC(=O)/N=c1/sc([N+](=O)[O-])cn1CC(=O)N1CCCCC1
dose: 100.0 mg/kg/injection, schedule: Q04DX002 (ip), vehicle: Klucel (hydroxypropylcellulose) (HPC)
  T/C: 100 % of control
dose: 200.0 mg/kg/injection, schedule: Q04DX002 (ip), vehicle: Klucel (hydroxypropylcellulose) (HPC)
  T/C: 99 % of control
dose: 400.0 mg/kg/injection, schedule: Q04DX002 (ip), vehicle: Klucel (hydroxypropylcellulose) (HPC)
  T/C: 98 % of control

## CCOc1cccc2c1C(O)(C#Cc1ccccc1)c1cccc(OCC)c1C2(O)C#Cc1ccccc1 (configuration not stated)
dose: 100.0 mg/kg/injection, schedule: Q04DX002 (ip), vehicle: saline with Tween-80
  T/C: 87 % of control
dose: 200.0 mg/kg/injection, schedule: Q04DX002 (ip), vehicle: saline with Tween-80
  T/C: 87 % of control
dose: 400.0 mg/kg/injection, schedule: Q04DX002 (ip), vehicle: saline with Tween-80
  T/C: 91 % of control

## Cn1ccn(CCCCCCn2ccn(C)c2=S)c1=S
dose: 3.12 mg/kg/injection, schedule: Q01DX009 (ip), vehicle: saline
  T/C: 103 % of control
dose: 6.25 mg/kg/injection, schedule: Q01DX009 (ip), vehicle: saline
  T/C: 96 % of control
dose: 12.5 mg/kg/injection, schedule: Q01DX009 (ip), vehicle: suspension in saline
  T/C: 92 % of control

## CCOC(=O)C(Cc1ccccc1)NC(=O)N(CCCl)CCCl (configuration not stated)
dose: 66.0 mg/kg/injection, schedule: Q04DX003 (ip), vehicle: saline with Tween-80
  T/C: 109 % of control
[2]
  T/C: 109 % of control
[25]
  T/C: 113 % of control
[3]
  T/C: 122 % of control

## CC1(O)CCC(O)CC1CC[N+](C)(C)[O-] (configuration not stated)
[23]
  T/C: 102 % of control
[24]
  T/C: 99 % of control
dose: 200.0 mg/kg/injection, schedule: Q01DX005 (ip), vehicle: saline
  T/C: 102 % of control
